Measurements taken from PubChem BioAssay (NCI).
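These data come from cells grown in 96-well plates and exposed to compound for 48 hours at five concentrations. The concentration for 50% growth inhibition is given as GI50. TGI: concentration producing complete growth inhibition.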

Tests used:
Assay in all cases: NCI anticancer screen, dose series, 48 h
786-0 renal = test system: 786-0 renal
A549 NSCLC = test system: A549 NSCLC
MALME-3M melanoma = test system: MALME-3M melanoma
MCF7 breast = test system: MCF7 breast
OVCAR-8 ovarian = test system: OVCAR-8 ovarian
RPMI-8226 leukemia = test system: RPMI-8226 leukemia
RXF 393 renal = test system: RXF 393 renal
SNB-75 CNS = test system: SNB-75 CNS
LXFL 529 NSCLC = test system: LXFL 529 NSCLC
DMS 273 small cell lung = test system: DMS 273 small cell lung

Row | Compound | GI50 (786-0 renal) | TGI (786-0 renal) | GI50 (A549 NSCLC) | TGI (A549 NSCLC) | GI50 (MALME-3M melanoma) | TGI (MALME-3M melanoma) | GI50 (MCF7 breast) | TGI (MCF7 breast) | GI50 (OVCAR-8 ovarian) | TGI (OVCAR-8 ovarian) | GI50 (RPMI-8226 leukemia) | TGI (RPMI-8226 leukemia) | GI50 (RXF 393 renal) | TGI (RXF 393 renal) | TGI (SNB-75 CNS) | TGI (LXFL 529 NSCLC) | GI50 (SNB-75 CNS) | GI50 (DMS 273 small cell lung) | TGI (DMS 273 small cell lung) | GI50 (LXFL 529 NSCLC)
1 | CN1CCN(CC(=O)N(C)c2ccc(N=C(c3ccccc3)c3c(O)[nH]c4ccc(C#N)cc34)cc2)CC1 | 2.3 µM | 14.6 µM | 3.13 µM | 21.2 µM | 1.77 µM | 3.39 µM | 0.451 µM | 13.7 µM | 4.87 µM | > 100 µM | 2.65 µM | 6.52 µM | 1.39 µM | 3.38 µM | 5.49 µM |  |  |  |  | 
2 | Cc1nc(N)nc(N)c1CCCCc1ccc(N)cc1 |  | 18.9 µM |  | 16.8 µM |  | 18.2 µM |  |  |  | 20.6 µM |  | 26.5 µM |  |  | 29.3 µM | 20.4 µM |  |  |  | 
3 | COc1cc2cc(Oc3ccc(NC(=O)Nc4cc(C(F)(F)F)cc(C(F)(F)F)c4)cc3)c(C)nc2cc1OCCN1CCOCC1 | 1.28 µM | 3.65 µM | 1.72 µM | 7.23 µM | 1.2 µM | 3.79 µM | 1.43 µM | 3.91 µM | 1.67 µM | 12.8 µM | 0.84 µM | 2.12 µM | 1.12 µM | 2.99 µM | 4.48 µM |  | 1.02 µM |  |  | 
4 | NC(=O)c1ccc2c(c1)-c1nc-2nc2[n-]c(nc3nc(nc4[n-]c(n1)c1ccc(C(N)=O)cc41)-c1ccc(C(N)=O)cc1-3)c1ccc(C(N)=O)cc21.[Co+2] | 19.5 µM | > 50 µM | > 50 µM | > 50 µM | > 50 µM | > 50 µM |  |  | > 50 µM | > 50 µM | > 50 µM | > 50 µM |  |  | > 50 µM | > 50 µM | > 50 µM | > 50 µM | > 50 µM | 35.9 µM
5 | Cc1ccc(NC(=O)CCc2nc(=S)[nH][nH]2)cc1 |  | > 100 µM |  | > 100 µM |  | > 100 µM |  |  |  | > 100 µM |  | > 100 µM |  |  | > 100 µM | > 100 µM |  |  | > 100 µM | 
6 | Cc1ccc(CNc2ccc(Br)cc2)cc1 |  | > 100 µM |  | > 100 µM |  | 64 µM |  | 61 µM |  | 65.3 µM |  | 17.5 µM |  | 76.5 µM | > 100 µM |  |  |  |  | 
7 | O=C(O)C1=C/C(=C(/c2ccccc2)c2cc(C(=O)O)c(O)c3ccccc23)c2ccccc2C1=O |  | > 100 µM |  | > 100 µM |  | > 100 µM |  | > 100 µM |  | > 100 µM |  | > 100 µM |  | > 100 µM | > 100 µM |  |  |  |  | 
8 | COc1cc[c]([Sn]([c]2ccc(OC)cc2)([c]2ccc(OC)cc2)[c]2ccc(OC)cc2)cc1 | 18.1 µM | 43.5 µM | 25.9 µM | > 100 µM | 3.31 µM | 8.43 µM |  |  | 27.1 µM | > 100 µM | 11.2 µM | 35.1 µM |  |  | > 100 µM | 36.4 µM | 24 µM | 25.2 µM | 96.5 µM | 15.8 µM
9 | CN(C)c1ccc(/C=C\c2ccnc3ccccc23)cc1 | 6.03 µM | > 39.2 µM | 5.83 µM | > 100 µM | 17.7 µM | > 89.2 µM | 0.328 µM | 10.9 µM | 5.26 µM | > 100 µM | 4.02 µM | > 85 µM | 3.2 µM | > 79.6 µM | 8.97 µM |  | 1.44 µM |  |  | 
10 | O=C(CS(=O)(=O)c1nc2ccccc2nc1-c1ccccc1)Nc1ccc(F)cc1 | > 100 µM | > 100 µM | > 100 µM | > 100 µM | 80.7 µM | > 100 µM | 43.1 µM | > 100 µM | 94.3 µM | > 100 µM | 29.1 µM | > 100 µM | > 100 µM | > 100 µM | > 100 µM |  | > 100 µM |  |  | 
11 | O=C1NC(=NCc2ccccc2Cl)S/C1=C\c1ccc2ncccc2c1 | 16.3 µM | > 25 µM | 8.5 µM | > 25 µM | > 20.7 µM | > 25 µM | 9.2 µM | > 25 µM | > 25 µM | > 25 µM | 17 µM | > 25 µM | 8.49 µM | > 25 µM | > 21.8 µM |  | 0.785 µM |  |  | 
12 | Oc1ccc(Br)cc1C=Nc1cccc(C(F)(F)F)c1 |  | > 100 µM |  | > 100 µM |  | 75.5 µM |  | > 100 µM |  | > 100 µM |  | > 100 µM |  | > 100 µM | > 100 µM |  |  |  |  | 
13 | C[C@@]1([C@H](OC(=O)c2ccccc2)C(N)=O)CO1 | 22.6 µM | 59.4 µM | 24 µM | 61.4 µM | 28.3 µM | 58 µM | 32 µM | > 100 µM | 20.1 µM | 46.1 µM | 26.2 µM | > 100 µM | 18 µM | 43.5 µM | 50.6 µM |  | 22.8 µM |  |  | 
14 | NS(=O)(=O)c1ccc(Nc2cc(-c3ccc(O)c(F)c3)[nH]n2)cc1 | > 25 µM | > 25 µM | > 25 µM | > 25 µM | > 23.2 µM | > 25 µM | > 25 µM | > 25 µM | 17.8 µM | > 25 µM | > 25 µM | > 25 µM | > 25 µM | > 25 µM | > 25 µM |  | > 25 µM |  |  | 
15 | CCCNC(=O)Nc1c([N+](=O)[O-])cc(C(F)(F)F)cc1[N+](=O)[O-] |  | > 100 µM |  | > 100 µM |  |  |  |  |  | > 100 µM |  | > 100 µM |  | 76.1 µM | > 100 µM | > 100 µM |  |  | > 100 µM | 
16 | O=C1NC(=S)S/C1=C\c1cn(-c2ccccc2)nc1-c1ccccc1 | 3.92 µM | 28.5 µM | 5.88 µM | > 100 µM | 3.84 µM | 13.1 µM | 8.31 µM | 94.1 µM | 11.4 µM | > 100 µM | 2.52 µM | 68.6 µM | 22.4 µM | 65.2 µM | 51.3 µM |  | 17.8 µM |  |  | 
17 | Nc1nnc2c(-c3ccccc3)[nH]nc2n1 |  | > 100 µM |  | > 100 µM |  |  |  |  |  | > 100 µM |  | > 100 µM |  | > 100 µM |  | > 100 µM |  |  | > 100 µM | 
